# Source: patent US4100276A, “Fusidic acid derivatives” (priority 1975, dated 1978)
# Where a name gives a salt, the structure may show the parent alone. Read-outs that look alike come from different tables or passages of the source.
# Tests used:
# Corynebact. acnes Leo FN = assay: In vitro activity, concentration required for 50% inhibition (Table A); format: cell-based, Corynebacterium acnes; conditions: for IC50: Cutibacterium acnes
# [1] = system: Bacteroides fragilis, Leo JA2; assay: as above; format: cell-based
# [2] = system: Staph. aureus, Leo CC178H2 (fusidic acid resistant strain); assay: as above; format: cell-based; conditions: Staphylococcus aureus, read-out: Concentration required for 50% inhibition (IC50)
# [3] = system: Streptococcus sp. Leo EG2; assay: as above; format: cell-based
# Staph. aureus Leo CJ145 = assay: as above; format: cell-based; conditions: for IC50: Staphylococcus aureus
# [4] = system: Staphylococcus aureus Leo CC178B; assay: as above; format: cell-based; conditions: for IC50: LEOCC178B, read-out: Concentration required for 50% inhibition (IC50)
# [5] = system: Streptococcus pyogenes Leo EC; assay: as above; format: cell-based
# [6] = system: fusidic acid resistant variant of Staph. aureus (Leo CC 178A); assay: In vitro activity before and after a number of transfers (Example 48, Table C); format: cell-based; conditions: for IC50: Staphylococcus aureus
# Protocol: (§1) In vitro activity of 3α,11α-dihydroxy-16β-ethylthiofusida-13(17),24-dien-21-oic acid against Staph. aureus before and after a number of transfers.
# (§2) Serial dilutions of the compound above were made in liquid NIH-medium and then heavily inoculated with either a fusidic acid sensitive strain of Staph. aureus (Leo CC 178B) or with a fusidic acid resistant variant of the same strain (Leo CC 178A).
# (§3) After every 72 to 96 hours transfers were made from the tubes containing the largest amount of the test compound showing full growth.
# [7] = system: fusidic acid sensitive strain of Staph. aureus (Leo CC 178B); assay: as above; format: cell-based; conditions: for IC50: Staphylococcus aureus, Leo CC 178B (fusidic acid sensitive), overnight incubation
# Protocol: as §1, §2, §3
# Staphylococcus aureus = assay: In vitro effect of combination with dihydro-fusidic acid, viable counts (Example 46); format: cell-based; conditions: tubes a, b 10 μg/ml, tube c 5 + 5 μg/ml
# Protocol: In vitro-effect of the combination of dihydro-fusidic acid and 3α,11α-dihydroxy-16β-phenylthio-fusida-13(17),24-dien-21- oic acid
# To three tubes containing NIH broth was added:
# a. The sodium salt of dihydro-fusidic acid (10 μg/ml).
# b. The sodium salt of 3α,11α-dihydroxy-16-phenylthiofusida-13(17),24-dien-21-oic acid (10 μg/ml).
# c. A mixture of the sodium salts of dihydro-fusidic acid (5 μg/ml) and 3α,11α-dihydroxy-16-phenylthiofusida-13(17),24-dien-21-oic acid (5 μg/ml).
# The tubes were inoculated with Staphylococcus aureus to give 5.2 × 10^5 organisms per ml, incubated at 37° C for 96 hours, and the viable counts were determined.
# A fourth tube was treated similarly without addition of any of the antibiotics and used as a control: […]
# [8] = Corynebact. acnes Leo FN, read-out: Concentration required for 50% inhibition (IC50)
# [9] = LEOJA2, Bacteroides fragilis Leo JA2, read-out: Concentration required for 50% inhibition (IC50)
# [10] = Streptococcus sp. Leo EG2, read-out: Concentration required for 50% inhibition (IC50)
# [11] = LEOCJ145, Staph. aureus Leo CJ145, read-out: Concentration required for 50% inhibition (IC50)
# [12] = Staphylococcus aureus Leo CC178B
# [13] = Streptococcus pyogenes Leo EC, read-out: Concentration required for 50% inhibition (IC50)
# [14] = read-out: IC50 after 1st transfer
# [15] = read-out: IC50 after 2nd transfer
# [16] = read-out: IC50 after 3rd transfer
# [17] = read-out: IC50 after 4th transfer
# [18] = read-out: IC50 after 5th transfer
# [19] = read-out: IC50 after 6th transfer
# [20] = Bacteroides fragilis, LEOJA2, read-out: Concentration required for 50% inhibition (IC50), Bacteroides fragilis Leo JA2
# [21] = Streptococcus, read-out: Concentration required for 50% inhibition (IC50), Streptococcus sp. Leo EG2
# [22] = Streptococcus pyogenes, read-out: Concentration required for 50% inhibition (IC50), Streptococcus pyogenes Leo EC
compound,measurement,setting,value
"CC(C)=CCCC(C(=O)O)C1=C2C[C@@H](O)[C@H]3[C@@]4(C)CC[C@@H](O)[C@@H](C)[C@@H]4CC[C@]3(C)[C@@]2(C)C[C@@H]1Sc1ccc(Br)cc1 (stereo partly drawn) [Example 2, 3α,11α-dihydroxy-16β--(4'-bromophenylthio)fusida-13(17),24-dien-21-oic acid sodium salt]",IC50,Corynebact. acnes Leo FN; [8],0.63 mg/L
same,IC50,[1]; [9],13 mg/L
same,IC50,[2],10 mg/L
same,IC50,[3]; [10],0.5 mg/L
same,IC50,Staph. aureus Leo CJ145; [11],100 mg/L
same,IC50,[4]; [12],6.3 mg/L
same,IC50,[5]; [13],0.2 mg/L
"CC(C)CCCC(C(=O)O)C1=C2C[C@@H](O)[C@H]3[C@@]4(C)CC[C@@H](O)[C@@H](C)[C@@H]4CC[C@]3(C)[C@@]2(C)C[C@@H]1Sc1ccccc1 (stereo partly drawn) [Example 8, 3α,11α-Dihydroxy-16β-phenylthiofusida-13(17)-en-21-oic acid, sodium salt]",IC50,Corynebact. acnes Leo FN; [8],1.6 mg/L
same,IC50,[1]; [9],> 100 mg/L
same,IC50,[2],2.5 mg/L
same,IC50,[3]; [10],0.5 mg/L
same,IC50,[4]; [12],2 mg/L
same,IC50,[5]; [13],0.5 mg/L
"CCS[C@H]1C[C@@]2(C)C(=C1C(CCC=C(C)C)C(=O)O)C[C@@H](O)[C@H]1[C@@]3(C)CC[C@@H](O)[C@@H](C)[C@@H]3CC[C@@]12C (stereo partly drawn) [Example 11, 3α,11α-dihydroxy-16β-ethylthiofusida-13(17),24-dien-21-oic acid sodium salt]",IC50,Corynebact. acnes Leo FN; read-out: Concentration required for 50% inhibition (IC50),2 mg/L
same,IC50,"[1]; Bacteroides fragilis, LEOJA2, read-out: Concentration required for 50% inhibition (IC50)",2 mg/L
same,IC50,[2],3.2 mg/L
same,IC50,"[3]; Streptococcus, read-out: Concentration required for 50% inhibition (IC50)",1.6 mg/L
same,IC50,"Staph. aureus Leo CJ145; LEOCJ145, read-out: Concentration required for 50% inhibition (IC50)",3.2 mg/L
same,IC50,[4]; Staphylococcus aureus,2.7 mg/L
same,IC50,"[5]; Streptococcus pyogenes, read-out: Concentration required for 50% inhibition (IC50)",1.6 mg/L
same,IC50,[6]; [14],2.3 mg/L
same,IC50,[6]; [15],3.8 mg/L
same,IC50,[6]; [16],4.3 mg/L
same,IC50,[6]; [17],4.2 mg/L
same,IC50,[6]; [18],4 mg/L
same,IC50,[6]; [19],4 mg/L
same,IC50,[6]; read-out: IC50 before transfer,2.7 mg/L
same,Change in sensitivity after transfers,[6]; fusidic acid resistant strain,hardly shows any change in sensitivity
same,IC50,[7]; [14],2 mg/L
same,IC50,[7]; [15],7.4 mg/L
same,IC50,[7]; [16],7.4 mg/L
same,IC50,[7]; [17],13.5 mg/L
same,IC50,[7]; [18],10 mg/L
same,IC50,[7]; [19],32 mg/L
same,IC50,[7]; read-out: IC50 before transfer,2.7 mg/L
same,Decrease of sensitivity after the 6th transfer,[7]; fusidic acid sensitive strain,12 fold
CC(C)=CCCC(C(=O)O)C1=C2C[C@@H](O)[C@H]3[C@@]4(C)CC[C@@H](O)[C@@H](C)[C@@H]4CC[C@]3(C)[C@@]2(C)C[C@@H]1SC(C)(C)C (stereo partly shown) [Example 13],IC50,Corynebact. acnes Leo FN; [8],0.5 mg/L
same,IC50,[1]; [9],2 mg/L
same,IC50,[2],1.6 mg/L
same,IC50,[3]; [10],1.6 mg/L
same,IC50,Staph. aureus Leo CJ145; [11],7.9 mg/L
same,IC50,[4]; [12],1.6 mg/L
same,IC50,[5]; [13],0.63 mg/L
C=CCS[C@H]1C[C@@]2(C)C(=C1C(CCC=C(C)C)C(=O)O)C[C@@H](O)[C@H]1[C@@]3(C)CC[C@@H](O)[C@@H](C)[C@@H]3CC[C@@]12C (stereo partly shown) [Example 14],IC50,Corynebact. acnes Leo FN; [8],1.6 mg/L
same,IC50,[1]; [9],4 mg/L
same,IC50,[2],1.6 mg/L
same,IC50,[3]; [10],1.6 mg/L
same,IC50,Staph. aureus Leo CJ145; [11],5 mg/L
same,IC50,[4]; [12],1.6 mg/L
same,IC50,[5]; [13],0.32 mg/L
CC(C)=CCCC(C(=O)O)C1=C2C[C@@H](O)[C@H]3[C@@]4(C)CC[C@@H](O)[C@@H](C)[C@@H]4CC[C@]3(C)[C@@]2(C)C[C@@H]1SCc1ccco1 (stereo partly shown) [Example 23],IC50,Corynebact. acnes Leo FN; [8],0.79 mg/L
same,IC50,[1]; [9],16 mg/L
same,IC50,[2],1.6 mg/L
same,IC50,[3]; [10],1.6 mg/L
same,IC50,Staph. aureus Leo CJ145; [11],7.9 mg/L
same,IC50,[4]; [12],1.6 mg/L
same,IC50,[5]; [13],0.63 mg/L
"CC(C)CCCC(C(=O)O)C1=C2C[C@@H](O)[C@H]3[C@@]4(C)CC[C@@H](O)[C@@H](C)[C@@H]4CC[C@]3(C)[C@@]2(C)C[C@@H]1SC(C)C (stereo partly drawn) [Example 26, 3α,11α-Dihydroxy-16β-isopropylthiofusida-13(17)-en-21-oic acid sodium salt]",IC50,"Corynebact. acnes Leo FN; read-out: Concentration required for 50% inhibition (IC50), Corynebact. acnes Leo FN",0.5 mg/L
same,IC50,[1]; [20],20 mg/L
same,IC50,[2],1.6 mg/L
same,IC50,[3]; [21],0.5 mg/L
same,IC50,[4]; Staphylococcus aureus,1.6 mg/L
same,IC50,[5]; [22],0.5 mg/L
"CC(C)=CCCC(C(=O)O)C1=C2C[C@@H](O)[C@H]3[C@@]4(C)CC[C@@H](O)[C@@H](C)[C@@H]4CC[C@]3(C)[C@@]2(C)C[C@@H]1SC(C)C (stereo partly drawn) [Example 27, 3α,11α-Dihydroxy-16β-isopropylthiofusida-13(17), 24-dien-21-oic acid]",Concentration required for 50% inhibition (IC50),Corynebact. acnes Leo FN; Corynebact. acnes Leo FN,0.63 mg/L
same,IC50,[1]; [20],10 mg/L
same,IC50,[2],1.6 mg/L
same,IC50,[3]; [21],1 mg/L
same,IC50,"Staph. aureus Leo CJ145; LEOCJ145, read-out: Concentration required for 50% inhibition (IC50), Staph. aureus Leo CJ145",4 mg/L
same,IC50,[4]; Staphylococcus aureus,1.6 mg/L
same,IC50,[5]; [22],0.63 mg/L
"CC(C)=CCCC(C(=O)O)C1=C2C[C@@H](O)[C@H]3[C@@]4(C)CC[C@@H](O)[C@@H](C)[C@@H]4CC[C@]3(C)[C@@]2(C)C[C@@H]1SC(C)C (stereo partly drawn) [Example 31C, 3α,11α-dihydroxy-16β-isopropylthiofusida-13(17),24-dien-21-oic acid]",Concentration required for 50% inhibition (IC50),Corynebact. acnes Leo FN; Corynebact. acnes Leo FN,0.63 mg/L
same,Concentration required for 50% inhibition (IC50),[1]; Bacteroides fragilis Leo JA2,6.3 mg/L
same,Concentration required for 50% inhibition (IC50),[3]; Streptococcus sp. Leo EG2,0.63 mg/L
same,Concentration required for 50% inhibition (IC50),Staph. aureus Leo CJ145; Staph. aureus Leo CJ145,4.0 mg/L
same,Concentration required for 50% inhibition (IC50),[4]; [12],1.6 mg/L
same,Concentration required for 50% inhibition (IC50),[5]; Streptococcus pyogenes Leo EC,0.5 mg/L
"CC(C)=CCCC(C(=O)O)C1=C2C[C@@H](O)[C@H]3[C@@]4(C)CC[C@@H](O)[C@@H](C)[C@@H]4CC[C@]3(C)[C@@]2(C)C[C@@H]1SC(C)C (stereo partly drawn) [Example 31D, 3α,11α-dihydroxy-16β-isopropylthiofusida-13(17),24-dien-21-oic acid]",Concentration required for 50% inhibition (IC50),Corynebact. acnes Leo FN; Corynebact. acnes Leo FN,1.6 mg/L
same,Concentration required for 50% inhibition (IC50),[3]; Streptococcus sp. Leo EG2,0.79 mg/L
same,Concentration required for 50% inhibition (IC50),Staph. aureus Leo CJ145; Staph. aureus Leo CJ145,5.0 mg/L
same,Concentration required for 50% inhibition (IC50),[4]; [12],1.6 mg/L
same,Concentration required for 50% inhibition (IC50),[5]; Streptococcus pyogenes Leo EC,0.63 mg/L
"CC(=O)O[C@H]1C[C@@]2(C)[C@@H](C[C@@H](O)[C@H]3[C@@]4(C)CC[C@@H](O)[C@@H](C)[C@@H]4CC[C@@]32C)/C1=C(\CCCC(C)C)C(=O)O [sodium salt of dihydro-fusidic acid, reference compound]",Viable counts after 6 1/2 hours,"Staphylococcus aureus; 37° C, inoculum 5.2 × 10^5",3.1 × 10^5 organisms per ml
same,Viable counts after 2 hours,"Staphylococcus aureus; 37° C, inoculum 5.2 × 10^5",4.1 × 10^5 organisms per ml
same,Viable counts after 24 hours,"Staphylococcus aureus; 37° C, inoculum 5.2 × 10^5",6.3 × 10^6 organisms per ml
same,Resistance of surviving organisms to the compound / development of resistance,Staphylococcus aureus; 96 hours,resistant to dihydro-fusidic acid
